± gives the standard deviation of the averaged measurements.
Assays:
Assay in all cases: level (log10 ratio to DMSO vehicle control); higher = higher biomarker level / cell amount than vehicle control
[1] = compound: OCC(F)(F)OC(F)(F)C(F)(F)OC(F)(F)C(F)(F)OC(F)(F)CO [1H,1H,11H,11H-Perfluorotetraethylene glycol] (in DMSO)
Procedure: (§1)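 BioMAP Diversity Plus panel of 12 human primary cell co-culture systems (3C, 4H, LPS, SAg, BT, BF4T, BE3C, CASM3C, HDF3CGF, KF3CT, MyoF, Mphg). Compounds were added 1 h before stimulation and left for 24 h (MyoF 48 h; BT 72 h for soluble read-outs or 6 d for IgG). Biomarkers were read by ELISA, cytotoxicity by SRB, PBMC viability and proliferation by Alamar Blue. Each well value was divided by the mean of 8 DMSO control wells on the same plate and log10 transformed; duplicate blinded samples were tested at 4 concentrations.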

[2] = compound: CN(C(=O)C(F)(F)C(F)(F)C(F)(F)F)[Si](C)(C)C [N-Methyl-N-trimethylsilylheptafluorobutyramide] (in DMSO)
Procedure: as §1

[3] = compound: CO[Si](C)(CCC(F)(F)C(F)(F)C(F)(F)C(F)(F)C(F)(F)C(F)(F)F)OC [Dimethoxymethyl((perfluorohexyl)ethyl)silane] (in DMSO)
Procedure: as §1

Perfluorononanoic acid = compound: O=C(O)C(F)(F)C(F)(F)C(F)(F)C(F)(F)C(F)(F)C(F)(F)C(F)(F)C(F)(F)F [Perfluorononanoic acid] (in DMSO)
Procedure: as §1

Octafluoroadipic acid = compound: O=C(O)C(F)(F)C(F)(F)C(F)(F)C(F)(F)C(=O)O [Octafluoroadipic acid] (in DMSO)
Procedure: as §1

[4] = compound: O=C(O)C(F)(OC(F)(F)C(F)(F)C(F)(F)F)C(F)(F)F [Ammonium perfluoro-2-methyl-3-oxahexanoate] (in Water)
Procedure: as §1

[5] = compound: OCCC(F)(F)C(F)(F)C(F)(F)C(F)(F)F [4:2 Fluorotelomer alcohol] (in DMSO)
Procedure: as §1

Perfluoroundecanoic acid = compound: O=C(O)C(F)(F)C(F)(F)C(F)(F)C(F)(F)C(F)(F)C(F)(F)C(F)(F)C(F)(F)C(F)(F)C(F)(F)F [Perfluoroundecanoic acid] (in DMSO); settings: 6700 nM
Procedure: as §1

Test System	level (log10) ([1]; 6700 nM)	level (log10) ([1]; 20000 nM)	level (log10) ([1]; 60000 nM)	level (log10) ([2]; 6700 nM)	level (log10) ([2]; 20000 nM)	level (log10) ([2]; 60000 nM)	level (log10) ([3]; 6700 nM)	level (log10) ([3]; 20000 nM)	level (log10) (Perfluorononanoic acid; 6700 nM)	level (log10) (Perfluorononanoic acid; 20000 nM)	level (log10) (Octafluoroadipic acid; 6700 nM)	level (log10) (Octafluoroadipic acid; 20000 nM)	level (log10) (Octafluoroadipic acid; 60000 nM)	level (log10) ([4]; 6700 nM)	level (log10) ([4]; 20000 nM)	level (log10) ([4]; 60000 nM)	level (log10) ([5]; 6700 nM)	level (log10) ([5]; 20000 nM)	level (log10) ([5]; 60000 nM)	level (log10) (Perfluoroundecanoic acid)
HDF3CGF:Proliferation 72hr	-0.125 ± 0.1	-0.178 ± 0.12	-0.358 ± 0.064	0.0075 ± 0.013	0.052 ± 0.042	0.0225 ± 0.011	0.02 ± 0.011	0.007 ± 0.037	0.143 ± 0.036	-0.182 ± 0.24	-0.036 ± 0.0042	0.024 ± 0.047	0.013 ± 0.017	0.0575 ± 0.057	0.0635 ± 0.066	-0.0255 ± 0.056	-0.014 ± 0.045	-0.022 ± 0.0014	0.033 ± 0.027	-0.557 ± 0.11
HDF3CGF:SRB	-0.0225 ± 0.043	-0.023 ± 0.1	-0.0555 ± 0.077	-0.048 ± 0.0028	-0.0015 ± 0.056	0.0205 ± 0.086	0.0315 ± 0.025	0.0455 ± 0.036	0.014 ± 0.0014	-0.0155 ± 0.026	-0.033 ± 0.023	0.0135 ± 0.037	-0.0005 ± 0.042	-0.033 ± 0.02	-0.0325 ± 0.0021	-0.0175 ± 0.011	-0.0105 ± 0.015	-0.022 ± 0.0028	0.011 ± 0.013	0.0395 ± 0.011
HDF3CGF:TIMP-1	-0.023 ± 0.089	0.0015 ± 0.11	-0.073 ± 0.092	-0.036 ± 0.017	-0.038 ± 0.018	-0.031 ± 0.0071	-0.023 ± 0.027	-0.0285 ± 0.022	-0.0225 ± 0.026	-0.039 ± 0.03	-0.0055 ± 0.03	0.022 ± 0.059	0.023 ± 0.055	0.025 ± 0.0028	0.014 ± 0.024	-0.0135 ± 0.0064	-0.045 ± 0.018	-0.02 ± 0.059	0.0035 ± 0.005	0.0385 ± 0.043
HDF3CGF:TIMP-2	-0.0285 ± 0.011	-0.046 ± 0.11	-0.121 ± 0.07	-0.0155 ± 0.036	0.002 ± 0.017	-0.0065 ± 0.049	0.002 ± 0.027	-0.03 ± 0.0014	0.0105 ± 0.033	0.0805 ± 0.026	0.007 ± 0.0085	0.02 ± 0.023	0.0055 ± 0.0078	0.0405 ± 0.07	0.0435 ± 0.013	-0.0185 ± 0.079	-0.0305 ± 0.026	-0.01 ± 0.017	-0.044 ± 0.027	0.009 ± 0.0042
KF3CT:CCL2/MCP-1	-0.025 ± 0.024	-0.044 ± 0.024	-0.005 ± 0.0042	-0.0175 ± 0.0092	-0.0305 ± 0.021	0.0205 ± 0.056	-0.0325 ± 0.0092	0.008 ± 0.059	-0.0975 ± 0.012	-0.157 ± 0.03	-0.0165 ± 0.043	-0.0265 ± 0.00071	0.0285 ± 0.026	0.086 ± 0.0057	0.088 ± 0.023	0.0775 ± 0.018	-0.001 ± 0.02	-0.0675 ± 0.035	0.009 ± 0.048	-0.075 ± 0.011
KF3CT:CD54/ICAM-1	-0.016 ± 0.0085	-0.008 ± 0.02	-0.006 ± 0.035	-0.001 ± 0.0028	-0.0045 ± 0.0092	-0.0065 ± 0.013	-0.0135 ± 0.015	0.0145 ± 0.0078	-0.0235 ± 0.013	-0.0455 ± 0.037	-0.0045 ± 0.0035	-0.0105 ± 0.0078	-0.009 ± 0.018	0.022 ± 0.0099	0.029 ± 0.0071	0.017 ± 0.0057	-0.0115 ± 0.0092	0.0015 ± 0.019	-0.009 ± 0.0057	-0.019 ± 0.0028
KF3CT:CXCL8/IL-8	-0.0085 ± 0.022	-0.0255 ± 0.021	-0.0125 ± 0.011	0.001 ± 0.013	-0.0105 ± 0.00071	0.0115 ± 0.022	-0.016 ± 0.0014	0.0035 ± 0.019	-0.0045 ± 0.016	0.013 ± 0.028	-0.0015 ± 0.015	0.0105 ± 0.0092	0.012 ± 0.017	0.0175 ± 0.036	0.0135 ± 0.00071	0.0165 ± 0.0092	0.0025 ± 0.0021	0.0185 ± 0.013	0.028 ± 0.017	-0.0315 ± 0.037
KF3CT:CXCL9/MIG	-0.006 ± 0.031	-0.001 ± 0.013	-0.013 ± 0.018	-0.0035 ± 0.0092	-0.0125 ± 0.0092	0.003 ± 0.0071	-0.004	-0.005 ± 0.0028	-0.006 ± 0.027	-0.007 ± 0.0042	0.003 ± 0.014	0.0075 ± 0.016	0.0155 ± 0.0021	-0.007 ± 0.011	0.0025 ± 0.00071	0.0005 ± 0.0021	-0.0055 ± 0.029	-0.0115 ± 0.021	-0.0115 ± 0.0035	0.0135 ± 0.018
KF3CT:CXCL10/IP-10	-0.0035 ± 0.018	-0.0065 ± 0.0064	-0.027 ± 0.016	-0.0095 ± 0.026	-0.011 ± 0.021	-0.0085 ± 0.0021	-0.0155 ± 0.0064	-0.008 ± 0.0028	-0.016 ± 0.018	-0.0085 ± 0.021	0 ± 0.0028	-0.001 ± 0.0028	-0.001 ± 0.014	-0.017 ± 0.0085	0.004 ± 0.0057	0.005 ± 0.0042	0.009 ± 0.04	-0.0005 ± 0.00071	0.019 ± 0.024	-0.054 ± 0.017
KF3CT:IL-1alpha	0.009 ± 0.018	0.003 ± 0.037	0.029 ± 0.034	-0.0155 ± 0.0021	-0.017 ± 0.0099	0.008 ± 0.034	-0.032 ± 0.024	-0.0065 ± 0.032	-0.0365 ± 0.053	-0.105 ± 0.043	-0.005 ± 0.013	-0.0245 ± 0.011	0.004 ± 0.02	-0.001 ± 0.0071	0.011 ± 0.0014	-0.0355 ± 0.044	-0.0325 ± 0.018	-0.056 ± 0.098	-0.0665 ± 0.067	-0.026 ± 0.011
KF3CT:MMP-9	0.0225 ± 0.021	0.062 ± 0.03	0.0725 ± 0.0078	-0.0235 ± 0.005	-0.0115 ± 0.033	0.0055 ± 0.00071	-0.008 ± 0.0014	-0.0065 ± 0.016	-0.0575 ± 0.053	-0.097 ± 0.034	-0.0065 ± 0.005	0.0085 ± 0.015	0.0175 ± 0.015	-0.008 ± 0.011	0.0415 ± 0.026	0.0695 ± 0.0035	-0.033 ± 0.011	-0.0435 ± 0.028	0.002 ± 0.034	-0.172 ± 0.027
KF3CT:PAI-I	-0.003 ± 0.02	-0.0115 ± 0.0064	-0.033 ± 0.0042	-0.02 ± 0.025	-0.004 ± 0.014	-0.0005 ± 0.0078	0.0045 ± 0.0064	0.009 ± 0.014	0.065 ± 0.011	-0.0095 ± 0.032	-0.0135 ± 0.0092	-0.0135 ± 0.011	-0.002 ± 0.017	-0.0455 ± 0.012	-0.0695 ± 0.0078	-0.054 ± 0.02	-0.0355 ± 0.012	-0.073 ± 0.027	0.041 ± 0.035	-0.11 ± 0.013
KF3CT:SRB	-0.003 ± 0.014	0.003 ± 0.0071	-0.012 ± 0.013	-0.004 ± 0.0014	-0.0095 ± 0.015	-0.003 ± 0.013	-0.0045 ± 0.0064	-0.004 ± 0.0028	-0.011 ± 0.0057	-0.0215 ± 0.0021	-0.0065 ± 0.005	0.003 ± 0.013	0.001 ± 0.018	-0.004	-0.005 ± 0.0014	-0.0015 ± 0.005	-0.009 ± 0.0071	-0.009 ± 0.013	-0.0025 ± 0.00071	-0.0105 ± 0.0021
KF3CT:TIMP-2	-0.008 ± 0.017	0.023 ± 0.0085	0.0295 ± 0.0092	-0.0315 ± 0.011	-0.0145 ± 0.0078	0.0095 ± 0.035	-0.004 ± 0.028	0.0035 ± 0.011	-0.074 ± 0.027	-0.002 ± 0.045	-0.001 ± 0.025	-0.0015 ± 0.005	0.0105 ± 0.0092	-0.0005 ± 0.037	-0.002 ± 0.025	0.022 ± 0.027	-0.0185 ± 0.14	-0.0295 ± 0.074	0.004 ± 0.054	0.0125 ± 0.012

Source: the supplement of paper PMC10331698
